Structures are written as SMILES. A value given as a limit tells only on which side of the number the result lay.

Here are results for 18 compounds from patent US8242145B2, “Cyclic diaryl ether compounds as antagonists of prostaglandin D2 receptors” (Panmira Pharmaceuticals, LLC, priority 2008, dated 2012).

The target of one assay is T1, human DP2 receptor (Homo sapiens, UniProt Q9Y5Y4).
T1 construct: expressed in transfected cells
T1 sequence (Q9Y5Y4 1-395): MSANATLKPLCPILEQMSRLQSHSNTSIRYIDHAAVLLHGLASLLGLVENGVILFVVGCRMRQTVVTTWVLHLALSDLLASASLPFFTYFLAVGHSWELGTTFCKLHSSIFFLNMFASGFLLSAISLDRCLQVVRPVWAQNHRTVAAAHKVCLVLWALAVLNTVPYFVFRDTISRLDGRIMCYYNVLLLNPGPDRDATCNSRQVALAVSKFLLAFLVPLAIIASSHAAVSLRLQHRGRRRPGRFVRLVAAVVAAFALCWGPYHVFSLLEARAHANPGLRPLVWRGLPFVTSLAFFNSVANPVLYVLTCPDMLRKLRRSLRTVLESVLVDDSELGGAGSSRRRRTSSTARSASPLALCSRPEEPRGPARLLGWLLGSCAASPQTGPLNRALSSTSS
In words: DP2/CRTH2 radioligand binding assay using [3H]PGD2. The settings on record: hDP2 (CRTH2) binding assay. The protocol: The ability of a compound to bind to the human DP2 receptor is assessed via a radioligand binding assay using [^3H]PGD2. HEK293 cells stably expressing recombinant human DP2 are resuspended in 10 mM Hepes, 7.4 containing 1 mM DTT, lysed and centrifuged at 75,000×g to pellet the membranes. The membranes are resuspended in 10 mM Hepes, 7.4 containing 1 mM DTT and 10% glycerol to approximately 5 mg protein/ml. Membranes (2-10 μg protein/well) are incubated in 96-well plates with 1 nM [^3H]PGD2 and test compound in Assay Buffer (50 mM Hepes, 10 mM MnCl2, 1 mM EDTA, plus or minus 0.2% human serum albumin, pH 7.4) for 60 minutes at room temperature. The reactions are terminated by rapid filtration through Whatman GF/C glass fibre filter plates. The filter plates were pre-soaked in 0.33% polythylenimine for 30 minutes at room temperature then washed in Wash Buffer (50 mM Hepes, 0.5 M NaCl pH 7.4) prior to harvesting. After harvesting, the filter plates are washed 3 times with 1 ml cold Wash Buffer then dried. Scintillant is then added to the plates and the radioactivity retained on the filters is determined on a Packard TopCount (Perkin Elmer). Specific binding is determined as total radioactive binding minus non-specific binding in the presence of 10 μM PGD2. IC50s were determined using GraphPad prism analysis of drug titration curves.

In another assay the target is T2, human DP1 receptor (Homo sapiens, UniProt Q13258).
T2 construct: tissue Biological Specialty Corporation; host or cells: human platelets, membranes
T2 sequence (Q13258 1-359): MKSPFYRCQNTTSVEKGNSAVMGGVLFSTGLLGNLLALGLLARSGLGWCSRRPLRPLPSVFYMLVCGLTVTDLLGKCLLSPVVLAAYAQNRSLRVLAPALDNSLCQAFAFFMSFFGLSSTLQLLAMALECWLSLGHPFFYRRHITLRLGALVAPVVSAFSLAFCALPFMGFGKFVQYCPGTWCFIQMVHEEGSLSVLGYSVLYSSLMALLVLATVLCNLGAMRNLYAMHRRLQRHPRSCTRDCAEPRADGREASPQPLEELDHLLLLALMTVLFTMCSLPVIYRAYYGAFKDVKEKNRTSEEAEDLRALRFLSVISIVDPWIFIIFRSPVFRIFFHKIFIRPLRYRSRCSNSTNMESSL
The assay can be described thus: DP1 radioligand binding assay using [3H]BWA868C. The settings on record: hDP1 binding. As to the method:
The ability of a compound to bind to the human DP1 receptor was evaluated via a radioligand membrane binding assay using the DP1 selective synthetic ligand [^3H]BW A868C. Packed human platelets (Biological Specialty Corporation), were resuspended in 6 volumes of Hepes/HBSS buffer (10 mM Hepes, 1 mM DTT in Hanks Balanced Salt Solution (HBSS)), lysed and centrifuged at 75,000×g to pellet the membranes. Membranes were resuspended in Hepes/HBSS buffer to approximately 12 mg protein/ml. Membranes (20 μg protein/well) are incubated in 96-well plates with 2 nM [^3H]BWA868C and test compound in Assay Buffer (50 mM Hepes, 10 mM MnCl2, 1 mM EDTA, plus or minus 0.2% human serum albumin, pH 7.4) for 60 minutes at room temperature. The reactions are terminated by rapid filtration through Whatman GF/C glass fibre filter plates. The filter plates were pre-soaked in 0.33% polethylenimine for 30 minutes at room temperature then washed in Wash Buffer (50 mM Hepes, 0.5 M NaCl pH 7.4) prior to harvesting. After harvesting, the filter plates are washed 3 times with 1 ml cold Wash Buffer then dried. Scintillant is then added to the plates and the radioactivity retained on the filters is determined on a Packard TopCount (Perkin Elmer). Specific binding is determined as total radioactive binding minus non-specific binding in the presence of 10 μM BW A868C. IC50s were determined using GraphPad prism analysis of drug titration curves.

Assay [1] deals with T3, recombinant human CRTH2 receptor (Homo sapiens, UniProt Q9Y5Y4).
T3 construct: expressed in transfected cells
T3 sequence (Q9Y5Y4 1-395): T1 sequence (Q9Y5Y4 1-395)
The assay can be described thus: GTPγS binding assay. The class given is biochemical. The settings on record: +HSA; read-out: hDP2 GTPγS μM (+HSA). The protocol: The ability of a compound to inhibit binding of GTP to DP2 is assessed via a membrane GTPγS assay. CHO cells stably expressing the recombinant human CRTH2 receptor are resuspended in 10 mM Hepes, 7.4 containing 1 mM DTT, lysed and centrifuged at 75,000×g to pellet the membranes. The membranes are resuspended in 10 mM Hepes, 7.4 containing 1 mM DTT and 10% glycerol. Membranes (˜12.5 μg per well) are incubated in 96-well plates with 0.05 nM [^35S]-GTPγS, 80 nM PGD2, 5 μM GDP, and test compound in Assay Buffer (50 mM Hepes, pH 7.4, 100 mM NaCl, 5 mM MgCl2 and 0.2% human serum albumin) for 60 minutes at 30° C. The reactions are terminated by rapid filtration through Whatman GF/B glass fibre filter plates. The filter plates are washed 3 times with 1 ml cold Assay Buffer and dried. Scintillant is then added to the plates and the radioactivity retained on the filters is determined on a Packard TopCount (Perkin Elmer). Specific binding is determined as total radioactive binding minus non-specific binding in the absence of the ligand (80 nM PGD2). IC50s were determined using Graphpad prism analysis of drug titration curves.
For orientation: GTPγS resists hydrolysis and so accumulates on activated G proteins.

As for `O=C(O)CCn1c2c(c3ccccc31)C[C@H](NS(=O)(=O)c1ccc(F)cc1)CC2` [Ramatroban, reference compound], the IC50 at human DP2 receptor is 0.3 to 1 µM; on human DP1 receptor, over 1 µM; in assay [1], 0.3 to 1 µM.
For `COc1ccc(CC(=O)O)cc1Oc1ccc(-c2cnn(C)c2)cc1CN1C(=O)O[C@@H](c2ccccc2)[C@H]1C` [Compound 1-66, {4-Methoxy-3-[2-((4R,5S)-4-methyl-2-oxo-5-phenyl-oxazolidin-3-ylmethyl)-4-(1-methyl-1H-pyrazol-4-yl)-phenoxy]-phenyl}-acetic acid], the IC50 at human DP2 receptor was under 0.3 µM; on human DP1 receptor, over 1 µM; in assay [1], under 0.3 µM.
Regarding `O=C(O)Cc1cccc(Oc2ccccc2CN2CCOC2=O)c1` [Compound 1-1, {3-[2-(2-Oxo-oxazolidin-3-ylmethyl)-phenoxy]-phenyl}-acetic acid], the IC50 on human DP2 receptor and at human DP1 receptor was over 1 µM throughout.
As for `Cc1ccc(Oc2cccc(CC(=O)O)c2)c(CN2CCOC2=O)c1` [Compound 1-4, {3-[4-Methyl-2-(2-oxo-oxazolidin-3-ylmethyl)-phenoxy]-phenyl}-acetic acid], the IC50 on human DP2 receptor was 0.3 to 1 µM; at human DP1 receptor it was over 1 µM.
`COc1ccc(CC(=O)O)cc1Oc1ccc(NC(=O)c2cc(C(F)(F)F)cc(C(F)(F)F)c2)cc1CN1CCOC1=O` [Compound 1-97, {3-[4-(3,5-Bis-trifluoromethyl-benzoylamino)-2-(2-oxo-oxazolidin-3-ylmethyl)-phenoxy]-4-methoxy-phenyl}-acetic acid]: the IC50 at human DP2 receptor is under 0.3 µM; on human DP1 receptor, over 1 µM.
Taken in the same sequence, the figures for `COc1ccc(CC(=O)O)cc1Oc1ccc(-c2cnn(C)c2)cc1CN1CCOC1=O` [Compound 1-96, {4-Methoxy-3-[4-(1-methyl-1H-pyrazol-4-yl)-2-(2-oxo-oxazolidin-3-ylmethyl)-phenoxy]-phenyl}-acetic acid] were under 0.3 µM and over 1 µM.
Turning to `O=C(O)Cc1cccc(Oc2ccc(Br)cc2CN2CCCC2=O)c1` [Compound 3-1, {3-[4-Bromo-2-(2-oxo-pyrrolidin-1-ylmethyl)-phenoxy]-phenyl}-acetic acid], the IC50 on human DP2 receptor and at human DP1 receptor was over 1 µM throughout.
As to `O=C(O)Cc1cccc(Oc2ccc(F)cc2CN2CCOC2=O)c1` [Compound 1-2, {3-[4-Fluoro-2-(2-oxo-oxazolidin-3-ylmethyl)-phenoxy]-phenyl}-acetic acid], the IC50 on human DP2 receptor and at human DP1 receptor was over 1 µM in each case.
Take `Cc1ncc(-c2ccc(Oc3cccc(CC(=O)O)c3)c(CN3C(=O)O[C@H](c4ccccc4)[C@@H]3C)c2)[nH]1` [Compound 1-23, {3-[4-(2-Methyl-3H-imidazol-4-yl)-2-((4S,5R)-4-methyl-2-oxo-5-phenyl-oxazolidin-3-ylmethyl)-phenoxy]-phenyl}-acetic acid]: the figures for the IC50 on human DP2 receptor and on human DP1 receptor were under 0.3 µM and over 1 µM, respectively.
In the case of `C[C@H]1[C@@H](c2ccccc2)OC(=O)N1Cc1cc(-c2nccs2)ccc1Oc1cccc(CC(=O)O)c1` [Compound 1-74, {3-[2-((4S,5R)-4-Methyl-2-oxo-5-phenyl-oxazolidin-3-ylmethyl)-4-thiazol-2-yl-phenoxy]-phenyl}-acetic acid], the IC50 on human DP2 receptor and on human DP1 receptor was under 0.3 µM throughout.
As for `Cc1c[nH]c(-c2ccc(Oc3cccc(CC(=O)O)c3)c(CN3C(=O)O[C@H](c4ccccc4)[C@@H]3C)c2)n1` [Compound 1-72, {3-[4-(4-Methyl-1H-imidazol-2-yl)-2-((4S,5R)-4-methyl-2-oxo-5-phenyl-oxazolidin-3-ylmethyl)-phenoxy]-phenyl}-acetic acid], the IC50 at human DP2 receptor is under 0.3 µM; on human DP1 receptor, over 1 µM.
On to `COc1ccc(CC(=O)O)cc1Oc1ccc(N2CCOCC2)cc1CN1CCOC1=O` [Compound 1-90, {4-Methoxy-3-[4-morpholin-4-yl-2-(2-oxo-oxazolidin-3-ylmethyl)-phenoxy]-phenyl}-acetic acid], for which the IC50 on human DP2 receptor and at human DP1 receptor was over 1 µM throughout.
Turning to `COc1ccc(CC(=O)O)cc1Oc1ccc(-c2cccc(S(C)(=O)=O)c2)cc1CN1CCOC1=O` [Compound 1-93, {3-[3′-Methanesulfonyl-3-(2-oxo-oxazolidin-3-ylmethyl)-biphenyl-4-yloxy]-4-methoxy-phenyl}-acetic acid], the IC50 on human DP2 receptor was under 0.3 µM; at human DP1 receptor it was over 1 µM.
For the compound `COc1ccc(CC(=O)O)cc1Oc1ccc(-c2ccc(S(C)(=O)=O)cc2)cc1CN1CCOC1=O` [Compound 1-92, {3-[4′-Methanesulfonyl-3-(2-oxo-oxazolidin-3-ylmethyl)-biphenyl-4-yloxy]-4-methoxy-phenyl}-acetic acid], the IC50 on human DP2 receptor was under 0.3 µM; on human DP1 receptor, over 1 µM.
With `COc1ccc(CC(=O)O)cc1Oc1ccc(NS(=O)(=O)c2ccc(Cl)cc2)cc1CN1CCOC1=O` [Compound 1-99, {3-[4-(4-Chloro-benzenesulfonylamino)-2-(2-oxo-oxazolidin-3-ylmethyl)-phenoxy]-4-methoxy-phenyl}-acetic acid], the IC50 on human DP2 receptor is under 0.3 µM; on human DP1 receptor it was over 1 µM.
Taken in the same sequence, the figures for `COc1ccc(CC(=O)O)cc1Oc1ccc(Br)cc1CN1CCNC1=O` [Compound 3-3, {3-[4-Bromo-2-(2-oxo-imidazolidin-1-ylmethyl)-phenoxy]-4-methoxy-phenyl}-acetic acid] were 0.3 to 1 µM and over 1 µM.
Taken in the same sequence, the figures for `C[C@H]1[C@@H](c2ccccc2)OC(=O)N1Cc1cc(-c2ccccn2)ccc1Oc1cccc(CC(=O)O)c1` [Compound 1-19, {3-[2-((4S,5R)-4-Methyl-2-oxo-5-phenyl-oxazolidin-3-ylmethyl)-4-pyridin-2-yl-phenoxy]-phenyl}-acetic acid] were under 0.3 µM and under 0.3 µM.
On the same counts, the results for `C[C@H]1[C@@H](c2ccccc2)OC(=O)N1Cc1cc(-c2cnn(C)c2)ccc1Oc1cccc(CC(=O)O)c1` [Compound 1-21, {3-[2-((4S,5R)-4-Methyl-2-oxo-5-phenyl-oxazolidin-3-ylmethyl)-4-(1-methyl-1H-pyrazol-4-yl)-phenoxy]-phenyl}-acetic acid] are under 0.3 µM and under 0.3 µM.
